Assay [1] concerns Covid. In words: One year investigation at Prestige Home Health, vitamin D protocol, Covid positive tests. In kind it is in vivo, human. Conditions: target vitamin D level 60 ng/ml. On the procedure:
In order to test some of the concepts disclosed herein, a one year investigation was conducted to gather data where there was an objective of bringing participants to a target level of vitamin D of 60 ng/ml treated at home by staff at Prestige Home Health in Starr county, Texas and also residents of nursing homes. Data on patients and staff was provided by Yolanda Garza registered nurse (RN)/Director of Nursing (DON) on Sep. 19, 2022. For patients that followed the disclosed protocol, zero tested positive for Covid as compared to fifty-three patients who tested positive for Covid who were not on the protocol. During the same one year period, four staff members on the disclosed protocol tested positive for Covid compared to 83 staff members who tested positive who were not on the disclosed protocol. Prestige Home Health also provided portable humidifiers in homes of many of the patients treated at home. Little or no sensors were provided to determine the level of humidification. Retama Manor also tried to make indoor humidify viral safe inside their facility by including humidifiers again without sensors. Though the capacity of their humidifiers was subpar, indoor humidity in all likelihood contributed to the facility's remarkable overall success. Only one patient at Retama Manor whose Vitamin D level was in the viral safe range tested positive during the 15 month study period.

The conditions of assay [2]: vitamin D exposure over 10 years; cohort of 12,388 persons; cited from earlier work.
The test system of assay [3] is Covid. Put plainly: Retama Manor nursing home 15 month study, vitamin D protocol, Covid positive tests. In kind it is in vivo, human.
The test system of assay [4] is acute respiratory illness. The conditions noted are these: higher doses of vitamin D; patients studied for a year; cited from earlier work.

For vitamin D, the “patients on the disclosed protocol who tested positive for Covid” value with Covid [1] (53 positive patients not on protocol) is “zero”. In addition, the “staff members on the disclosed protocol who tested positive for Covid” value with Covid [1] (83 positive staff not on protocol) is on record as “four”. Moreover, the “lowering of the risk of dementia” value in assay [2] is 40%. In addition, in the assay on Covid [3] (Retama Manor versus the other two nursing homes in Rio Grande City), the “Covid cases per staff member, less than the other two nursing homes” value was 45%. For the same substance, in the assay with Covid [3] (Retama Manor, 15 month (six quarter) study period), the “patients on vitamin D protocol / in viral safe range who tested positive for Covid” value is on record as “one”. Moreover, in the assay with Covid [3] (their patients at all three nursing homes in Rio Grande City, study period), the “Dr. Mussett's patients who tested positive for Covid” value is given as “two”. Moreover, in assay [4], the “reduction in acute respiratory illness” value was 40%.
